Biological target: T1, recombinant human PKM2 (Homo sapiens, UniProt P14618)
T1 construct: His (N); purchased R&D Systems
Assay: Human PKM2 activation assay (Kinase-Glo Plus luminescent detection of generated ATP)
Format: biochemical
Conditions: for Emax: read-out: hPKM2 Emax; for EC50: recombinant human PKM2 activation, 4-parameter logistic fit, read-out: hPKM2 EC50
Method: Compound activation of recombinant human PKM2 pyruvate kinase activity was determined by biochemical assay. N-terminal His-tagged hPKM2 was sourced from R&D Systems and its substrates phosphoenolpyruvate (PEP) and ADP from Sigma-Aldrich and 2Bscientific Ltd, respectively. The Kinase-Glo® Plus luminescence assay was from Promega. All other reagents were from Sigma-Aldrich. Test Compounds were prepared as 10 mM DMSO stocks and dilution series prepared in DMSO for direct dilution into Assay Buffer comprising 50 mM imidazole, 50 mM KCl, 7 mM MgCl2, 0.01% Tween20, 0.05% BSA (pH 7.2).
Human PKM2 was diluted into Assay Buffer comprising 50 mM imidazole, 50 mM KCl, 7 mM MgCl2, 0.01% Tween20, 0.05% BSA (pH 7.2) to a final concentration of […]. Enzyme-Assay Buffer mix was dispensed into a 384-well shallow-well white-walled plate (PerkinElmer) and Test Compounds added by acoustic dispense (Echo®, Labcyte Inc.).
After 60 minutes' incubation on an orbital shaker (300 rpm, 26° C.), enzyme activity was quantified by the luminescent detection of generated ATP. Kinase-Glo® Plus reagent was added to each well and the plates incubated for a further 15 minutes on an orbital shaker in the dark (300 rpm, 26° C.) before luminescence measurement on a plate reader (PHERAstar® FSX, BMG Labtech).
Percentage activation was calculated by normalising […] signals to plate LOW (DMSO vehicle) and HIGH (5 μM TEPP-46) controls. EC50 and Emax values were determined from 4-parameter logistic fits of compound concentration-response curves.

[1] = percentage activation normalised to DMSO vehicle (LOW) and 5 μM TEPP-46 (HIGH)

T1 sequence (P14618 2-531 limits assumed): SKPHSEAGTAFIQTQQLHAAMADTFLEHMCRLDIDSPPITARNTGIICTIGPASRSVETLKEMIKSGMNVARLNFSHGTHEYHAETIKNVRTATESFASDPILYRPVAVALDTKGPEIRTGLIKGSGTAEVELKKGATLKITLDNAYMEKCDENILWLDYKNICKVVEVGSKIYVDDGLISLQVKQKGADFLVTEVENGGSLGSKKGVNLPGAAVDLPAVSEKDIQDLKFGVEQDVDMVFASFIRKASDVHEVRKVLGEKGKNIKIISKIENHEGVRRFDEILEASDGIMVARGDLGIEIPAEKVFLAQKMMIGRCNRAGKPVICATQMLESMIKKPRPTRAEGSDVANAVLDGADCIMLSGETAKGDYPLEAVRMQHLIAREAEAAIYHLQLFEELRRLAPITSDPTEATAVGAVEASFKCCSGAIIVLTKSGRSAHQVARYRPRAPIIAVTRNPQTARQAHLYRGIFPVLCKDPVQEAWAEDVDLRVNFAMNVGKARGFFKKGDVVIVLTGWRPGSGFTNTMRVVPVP

| Structure (SMILES) | Emax [1] [%] | EC50 [nM] | hPKM2 Emax [1] [%] |
| --- | --- | --- | --- |
| COc1ccc(Cn2ncc3cc(S(=O)(=O)c4cnc5c(c4)OCCO5)ccc3c2=O)cn1 [Example 130, 6-((2,3-dihydro-[1,4]dioxino[2,3-b]pyridin-7-yl)sulfonyl)-2-((6-methoxypyridin-3-yl)methyl)phthalazin-1(2H)-one] | 57.1 | 224 |  |
| Cn1ccc(S(=O)(=O)c2ccc3c(=O)n(Cc4ccccc4C(N)=O)ncc3c2)n1 [Example 210, 2-((6-(1-methyl-1H-pyrazol-3-ylsulfonyl)-1-oxophthalazin-2(1H)-yl)methyl)benzamide] | 87.4 | 318 |  |
| COc1ccc(Cn2ncc3cc(S(=O)(=O)c4cnc(C(F)F)s4)ccc3c2=O)cn1 [Example 173, 6-(2-(difluoromethyl)thiazol-5-ylsulfonyl)-2-((6-methoxypyridin-3-yl)methyl)phthalazin-1(2H)-one] | 67.2 | 152 |  |
| COc1ccc(Cn2ncc3cc(OC4(c5ccccc5)COC4)ncc3c2=O)cn1 [Example 125, 3-((6-methoxypyridin-3-yl)methyl)-7-((3-phenyloxetan-3-yl)oxy)pyrido[3,4-d]pyridazin-4(3H)-one] | 88.8 | 458 |  |
| COc1ccc(Cn2ncc3cc(S(=O)(=O)c4ccc5c(c4)OCCO5)ccc3c2=O)cn1 [Example 182, 6-((2,3-dihydrobenzo[b][1,4]dioxin-6-yl)sulfonyl)-2-((6-methoxypyridin-3-yl)methyl)phthalazin-1(2H)-one] | 80.2 | 15.2 |  |
| COc1ccc(Cn2ncc3cc(S(=O)(=O)c4ccc(C)s4)ccc3c2=O)cn1 [Example 171, 2-((6-methoxypyridin-3-yl)methyl)-6-(5-methylthiophen-2-ylsulfonyl)phthalazin-1(2H)-one] | 82.3 | 77.2 |  |
| COc1ccc(Cn2ncc3cc(S(=O)(=O)c4ccsc4C(N)=O)ccc3c2=O)cn1 [Example 117, 3-(2-((6-methoxypyridin-3-yl)methyl)-1-oxo-1,2-dihydrophthalazin-6-ylsulfonyl)thiophene-2-carboxamide] | 77 | 177 |  |
| COc1ccc(Cn2ncc3cc(S(=O)(=O)c4ccc(Cl)cc4)ccc3c2=O)cn1 [Example 155, 6-((4-chlorophenyl)sulfonyl)-2-((6-methoxypyridin-3-yl)methyl)phthalazin-1(2H)-one] | 71.6 | 184 |  |
| COc1ccc(Cn2ncc3cc(S(=O)(=O)c4cnn(C)c4)ccc3c2=O)cn1 [Example 168, 2-((6-methoxypyridin-3-yl)methyl)-6-((1-methyl-1H-pyrazol-4-yl)sulfonyl)phthalazin-1(2H)-one] | 96 | 103 |  |
| Cc1ccc(S(=O)(=O)c2ccc3c(=O)n(Cc4cccc(N)c4)ncc3c2)s1 [Example 146, 2-(3-aminobenzyl)-6-((5-methylthiophen-2-yl)sulfonyl)phthalazin-1(2H)-one] | 115 | 75.3 |  |
| COc1ccc([S@](=N)(=O)c2ccc3c(=O)n(Cc4ccc(OC)nc4)ncc3c2)cc1 (single isomer, unassigned) [Example 139] |  | 129 | 81.9 |
| COc1ccc(Cn2ncc3cc(S(=O)(=O)c4cnn(C)c4C)ccc3c2=O)cn1 [Example 190, 6-(1,5-dimethyl-1H-pyrazol-4-ylsulfonyl)-2-((6-methoxypyridin-3-yl)methyl)phthalazin-1(2H)-one] | 102 | 225 |  |
| Cn1ccc(S(=O)(=O)c2ccc3c(=O)n(Cc4cccc(N)c4)ncc3c2)n1 [Example 145, 2-(3-aminobenzyl)-6-((1-methyl-1H-pyrazol-3-yl)sulfonyl)phthalazin-1(2H)-one] | 106 | 156 |  |
| CC(c1cccnc1)n1ncc2cc(S(=O)(=O)c3ccccc3)ccc2c1=O (stereo not shown) [Example 69, 6-(phenylsulfonyl)-2-(1-(pyridin-3-yl)ethyl)phthalazin-1(2H)-one] | 75.5 | 1170 |  |
| Cn1ccc(Cn2ncc3cc(S(=O)(=O)c4ccccc4)cnc3c2=O)n1 [Example 250, 7-((1-methyl-1H-pyrazol-3-yl)methyl)-3-(phenylsulfonyl)pyrido[2,3-d]pyridazin-8(7H)-one] | 92.4 | 398 |  |
| O=c1c2ccc(S(=O)(=O)c3ccccn3)cc2cnn1Cc1cc[nH]n1 [Example 211, 2-((1H-pyrazol-3-yl)methyl)-6-(pyridin-2-ylsulfonyl)phthalazin-1(2H)-one] | 80.7 | 222 |  |
| COc1ccc(Cn2ncc3cc(S(=O)(=O)c4cnc5c(c4)CCO5)ccc3c2=O)cn1 [Example 183, 6-((2,3-dihydrofuro[2,3-b]pyridin-5-yl)sulfonyl)-2-((6-methoxypyridin-3-yl)methyl)phthalazin-1(2H)-one] | 79.7 | 47.2 |  |
| COc1ccc(S(=O)(=O)c2ccc3c(=O)n(Cc4ccnc(O)c4)ncc3c2)cc1 [Example 3, 2-((2-hydroxypyridin-4-yl)methyl)-6-((4-methoxyphenyl)sulfonyl)phthalazin-1(2H)-one] | 92.6 | 566 |  |
| COc1ccc(Cn2ncc3cc(S(=O)(=O)c4csc(C)n4)ccc3c2=O)cn1 [Example 174, 2-((6-methoxypyridin-3-yl)methyl)-6-(2-methylthiazol-4-ylsulfonyl)phthalazin-1(2H)-one] | 94.2 | 106 |  |
| COc1ccc(S(=O)(=O)c2ccc3c(=O)n(Cc4cc(C(F)(F)F)no4)ncc3c2)cc1 [Example 112, 6-(4-methoxyphenylsulfonyl)-2-((3-(trifluoromethyl)isoxazol-5-yl)methyl)phthalazin-1(2H)-one] | 66.4 | 21.3 |  |

Further lines, results first:

| Emax [1] [%] | EC50 [nM] | hPKM2 Emax [1] [%] | Structure (SMILES) |
| --- | --- | --- | --- |
| 89.2 | 120 |  | COc1ccc(Cn2ncc3cc(S(=O)(=O)c4ccn(CCO)n4)ccc3c2=O)cn1 [Example 280, 6-((1-(2-hydroxyethyl)-1H-pyrazol-3-yl)sulfonyl)-2-((6-methoxypyridin-3-yl)methyl)phthalazin-1(2H)-one] |
| 86.6 | 285 |  | COc1ccc(S(=O)(=O)c2ccc3c(=O)n(Cc4ccn(CCO)n4)ncc3c2)nc1 [Example 292, 2-((1-(2-hydroxyethyl)-1H-pyrazol-3-yl)methyl)-6-((5-methoxypyridin-2-yl)sulfonyl)phthalazin-1(2H)-one] |
| 105 | 42 |  | Cc1c(Cn2ncc3cc(S(=O)(=O)c4cn[nH]c4)ccc3c2=O)nn2c1OCC2 [Example 362] |
| 110 | 200 |  | Cc1cccc(Cn2ncc3cc(S(=O)(=O)c4n[nH]cc4F)ccc3c2=O)n1 [Example 316] |
| 112 | 24.2 |  | Cc1cc(S(=O)(=O)c2ccc3c(=O)n(Cc4ccc5c(n4)CCO5)ncc3c2)n[nH]1 [Example 359] |
| 93.2 | 99 |  | Cc1cc(Cn2ncc3cc(S(=O)(=O)c4cn[nH]c4)ncc3c2=O)n[nH]1 [Example 300, 7-((1H-pyrazol-4-yl)sulfonyl)-3-((5-methyl-1H-pyrazol-3-yl)methyl)pyrido[3,4-d]pyridazin-4(3H)-one] |
| 105 | 98.8 |  | COC(C)c1nc(S(=O)(=O)c2ccc3c(=O)n(Cc4nc(C)c(C)cc4F)ncc3c2)cs1 (stereo not shown) [Example 353] |
| 78.6 | 434 |  | C[C@H](O)c1cccc(Cn2ncc3cc(S(=O)(=O)c4cnn(C)c4)ccc3c2=O)n1 (single isomer, unassigned) [Example 278] |
| 92.2 | 111 |  | Cc1cccc(Cn2ncc3cc(S(=O)(=O)c4csc([C@@H](C)O)n4)ccc3c2=O)n1 (single isomer, unassigned) [Example 296] |
| 105 | 128 |  | N=[S@](=O)(c1cn[nH]c1)c1ccc2c(=O)n(Cc3ccc4c(n3)CCO4)ncc2c1 (stereo in doubt) [Example 363] |
| 95.9 | 85.5 |  | Cc1[nH]nc(Cn2ncc3cc(S(=O)(=O)c4ccn(C)n4)ccc3c2=O)c1Cl [Example 337] |
| 98 | 172 |  | O=c1c2cc(NCCO)c(S(=O)(=O)c3ccccc3)cc2cnn1Cc1cc[nH]n1 [Example 263, 2-((1H-pyrazol-3-yl)methyl)-7-((2-hydroxyethyl)amino)-6-(phenylsulfonyl)phthalazin-1(2H)-one] |
| 99.9 |  |  | O=c1c2ccc(S(=O)(=O)c3cnn(C(F)F)c3)cc2cnn1Cc1cc[nH]n1 [Example 305] |
| 110 | 67.8 |  | O=c1c2ccc(S(=O)(=O)c3cc[nH]n3)cc2cnn1Cc1ccn(C2CC2)n1 [Example 339] |
| 94.7 | 103 |  | Cc1cccc(Cn2ncc3cc(S(=O)(=O)c4csc([C@H](C)O)n4)ccc3c2=O)n1 (single isomer, unassigned) [Example 297] |
| 113 | 11.4 |  | Cc1cc2nc(Cn3ncc4cc(S(=O)(=O)c5cn[nH]c5)ccc4c3=O)ccc2o1 [Example 345] |
| 113 | 71.4 |  | COCCn1ccc(S(=O)(=O)c2ccc3c(=O)n(Cc4ccc5c(n4)CCO5)ncc3c2)n1 [Example 360] |

Source: patent publication US20260152487A1 (Sitryx Therapeutics Limited, priority 2021, published 2026)
